Data published in ChEMBL document CHEMBL1201862, “PubChem BioAssay data set” (2004).
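48-hour exposure; five concentrations; linearly interpolated endpoints. GI50 marks 50% less growth.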 Active and inactive are the calls of the source. Cut-off read from the data, not from the text of the source: active = GI50 up to about 1.1 µM and inactive = higher.

Key:
Assay in all cases: inhibition of tumour cell growth, NCI panel, 48 h
COLO 205 = test system: COLO 205
HCT-15 = test system: HCT-15
KM12 = test system: KM12
MOLT-4 = test system: MOLT-4
Malme-3M = test system: Malme-3M
NCI-H23 = test system: NCI-H23
OVCAR-3 = test system: OVCAR-3
OVCAR-4 = test system: OVCAR-4
OVCAR-8 = test system: OVCAR-8
SK-MEL-28 = test system: SK-MEL-28
SK-MEL-5 = test system: SK-MEL-5
SK-OV-3 = test system: SK-OV-3
SN12C = test system: SN12C
SW-620 = test system: SW-620
UO-31 = test system: UO-31
A498 = test system: A498
EKVX = test system: EKVX

Structure (SMILES) | GI50 (COLO 205) | GI50 (HCT-15) | GI50 (KM12) | GI50 (MOLT-4) | GI50 (Malme-3M) | GI50 (NCI-H23) | GI50 (OVCAR-3) | GI50 (OVCAR-4) | GI50 (OVCAR-8) | GI50 (SK-MEL-28) | GI50 (SK-MEL-5) | GI50 (SK-OV-3) | GI50 (SN12C) | GI50 (SW-620) | GI50 (UO-31) | GI50 (A498) | GI50 (EKVX)
CC(=O)Nc1ccc(-c2nnc(SCC(=O)Nc3cccc(C)c3)o2)cc1 | 14.8 µM (inactive) | 8.97 µM | 10.8 µM (inactive) | 4.84 µM (inactive) | 14.1 µM (inactive) | 7.55 µM (inactive) | 11.7 µM (inactive) | 16 µM (inactive) | 16.3 µM (inactive) | 13.8 µM (inactive) | 11.1 µM (inactive) | 25.8 µM (inactive) | 15.2 µM (inactive) | 12.8 µM (inactive) | 13.2 µM (inactive) |  | 
CC1(C)OC(=O)[C@@](C)([C@H](O)c2ccccc2)O1 |  |  | > 100 µM (inactive) | 45.1 µM (inactive) | 28.7 µM (inactive) | > 100 µM (inactive) | 35.8 µM (inactive) | > 100 µM (inactive) | > 100 µM (inactive) | > 10 µM (inactive) | 40.1 µM (inactive) | > 100 µM (inactive) | > 100 µM (inactive) | > 100 µM (inactive) | > 100 µM (inactive) | > 100 µM (inactive) | > 100 µM (inactive)
COC(=O)c1ncc2c(=O)[nH]c3ccccc3c2c1C(=O)OC |  | > 100 µM | > 100 µM (inactive) | > 100 µM (inactive) | > 100 µM (inactive) | > 100 µM (inactive) | > 100 µM (inactive) | > 100 µM (inactive) | > 100 µM (inactive) | > 100 µM (inactive) | > 100 µM (inactive) |  | > 100 µM (inactive) | > 100 µM (inactive) | > 100 µM (inactive) | > 100 µM (inactive) | > 100 µM (inactive)
CCOC(=O)NC(=O)c1cn(CCCOC(=O)CCCCCCCCC(=O)OCCCn2cc(C(=O)NC(=O)OCC)c(=O)[nH]c2=O)c(=O)[nH]c1=O | 18.2 µM (inactive) | 19.5 µM |  | 19 µM (inactive) |  | > 10 µM (inactive) | 15.8 µM (inactive) | 4.41 µM (inactive) | 23 µM (inactive) | 16.4 µM (inactive) | 21.9 µM (inactive) | 40.5 µM (inactive) | 28.2 µM (inactive) | 15 µM (inactive) |  | 21.7 µM (inactive) | 38.1 µM (inactive)
Cc1cc(C)c(C(=O)/C=C/c2ccccc2)c(C)c1 | 29 µM (inactive) | 16.5 µM | 35.2 µM (inactive) | 24.9 µM (inactive) | 8.02 µM (inactive) | 26.4 µM (inactive) | > 10 µM (inactive) | 22.8 µM (inactive) | 15.5 µM (inactive) | > 10 µM (inactive) | > 100 µM (inactive) | 64.6 µM (inactive) | 14.4 µM (inactive) | 23 µM (inactive) | 52.4 µM (inactive) |  | 40.4 µM (inactive)
O=C(NCCOC(=O)CCCCCCCCC(=O)OCCNC(=O)NC(=O)c1cn(Cc2ccccc2)c(=O)[nH]c1=O)NC(=O)c1cn(Cc2ccccc2)c(=O)[nH]c1=O | > 100 µM (inactive) | > 100 µM | > 100 µM (inactive) | > 100 µM (inactive) |  | > 100 µM (inactive) | > 100 µM (inactive) | > 100 µM (inactive) | > 100 µM (inactive) | > 100 µM (inactive) | > 100 µM (inactive) | > 100 µM (inactive) | > 100 µM (inactive) | > 100 µM (inactive) | > 100 µM (inactive) | > 100 µM (inactive) | > 100 µM (inactive)
